# US20220098197A1, “SALTS OF HETEROCYCLIC COMPOUND AND USE THEREOF” (priority 2019, published 2022)
# Experiments:
# LPS-induced ALI mice = experiment: LPS-induced ALI model: pro-inflammatory cytokines and chemokines in BALF by ELISA; format: in vivo, Balb/c mice; details: CT-NA 10 or 30 mg/kg, Dex 1 mg/kg, dose-dependent, P<0.05 or P<0.01
# Description: Specific pathogen-free (SPF) Balb/c mice (♂/♀; 20-26 g; 8 weeks old) were purchased from Shanghai SIPPR-BK Experimental Animal Co., Ltd. Mice were kept in an isolated ventilated cage in an environment of 40-60% humidity, 24±2° C., and 12 hrs/12 hrs dark-light cycle, and had free access to food and water. The method for preparing the LPS-induced ALI model was simply described as follows. The mice were randomly divided into a control group (12 mice) and an LPS group (48 mice). The LPS group (48 mice) was further divided into four subgroups (12 mice in each subgroup). The unanaesthetized mice in the four subgroups of LPS were intragastrically administered with normal saline (NS), CT-NA at 10 mg/kg or 30 mg/kg, and Dex at 1 mg/kg, respectively. […] 24 hrs after LPS challenge, the oxygen saturation (SO2) of all mice was measured by a Moor VMS-OXY™ instrument which measured SO2 (%) in the microcirculation at the wavelength range of 500 to 650 nm. […]
# The expression levels of pro-inflammatory cytokines (TNF-α, IL-1β, IL-6), and chemokines (KC, mouse IL-8 homolog) in the BALF supernatant were determined by using respective ELISA determination kits according to the instruction manual. After measurements of the optical density at 450 nm, the expression level was calculated via the standard curves.
# RAW 264.7 macrophages = experiment: Cell viability (MTT) assay with CSE/PGD2; format: cell-based, mouse; details: 24 hrs
# Description: The cell lines of RAW 264.7 macrophages and mouse leukemic mononuclear macrophages were purchased from American Type Culture Collection (ATCC, Manassas, Va., USA). RAW 264.7 macrophage was cultured in RPMI-1640 medium containing penicillin (100 U/ml), streptomycin (100 μg/ml) and 10% FBS. The cytotoxicity of CT-NA (0-100 μM) alone, and in a combination of PGD2 (0-100 μM) and CSE (1-10%) on RAW264.7 macrophage was assessed using methylthiazole-tetrazole (MTT) assay according to the manufacturer's protocol. Briefly, RAW 264.7 macrophages were seeded in a 96-well plate at a concentration of 4×10^5 cells/ml for 24 hrs, and then exposed to CT-NA (0-100 μM) at 37° C. for 1 hour. Next, RAW 264.7 macrophages were further exposed to CSE (4%) and PGD2 (10 μM) for 24 hrs, and then treated with MTT (5 mg/ml) at 37° C. for 4 hrs. Then, the supernatant of each well was replaced with DMSO (200 μl/well), and the absorbance at 570 nm was measured.
# CS-induced ALI mice = experiment: CS-induced lung injury model: in vivo cytokine assay by ELISA in BALF; set-up: species or system Balb/c mice; details: p<0.01
# Description: Model preparation: The mice were randomly divided into 5 groups (12 mice in each group), which were the control group (the mice were exposed to fresh air), the saline group (the mice were exposed to cigarette smoke), dexamethasone (Dex) group (1 mg/kg) (the mice were exposed to cigarette smoke), CT-NA 10 mg/kg group and CT-NA 30 mg/kg group (the mice were exposed to cigarette smoke). According to the grouping, the mice were intragastrically administered saline, Dex and CT-NA, respectively. […] 24 hrs after the last exposure to the cigarette smoke, the partial pressure of oxygen (PO2) of all mice was measured by the Moor VMS-OXY™ measuring instrument, which was used to measure the oxygenated/deoxygenated hemoglobin concentration and oxygen saturation (percentage) in the microcirculation at the wavelength range of 500 to 650 nm. […] The expression levels of pro-inflammatory cytokines (TNF-α, IL-1β, IL-6), chemokines (KC) and anti-inflammatory cytokines (IL-10) in the BALF supernatant were determined using respective ELISA determination kits according to the instruction manual. After the optical density at 450 nm was measured, the expression of cytokines was calculated via the standard curve.
# RAW264.7 macrophages = experiment: Cell viability (MTT) assay with LPS/PGD2, RAW264.7; format: cell-based, mouse
# Description: The cell lines of RAW 264.7 macrophages and mouse leukemia mononuclear macrophages were purchased from ATCC (Manassas, Va.), and cultured in RPMI-1640 medium containing penicillin (100 U/ml), streptomycin (100 μg/ml) and 10% fetal bovine serum. RAW264.7 macrophage is an excellent model for screening anti-inflammatory drugs and evaluating the inhibitor pathways that stimulated the production of pro-inflammatory cytokines and enzymes. MTT was used to determine the cytotoxicity of CT-NA alone and its combination with PGD2 and LPS on RAW264.7 macrophages and isolated peritoneal macrophages according to the manufacturer's protocol. Briefly, RAW 264.7 macrophages were plated in a 96-well plate at a concentration of 4×10^5 cells/ml for 12 hrs, and then exposed to CT-NA (0-200 μM) at 37° C. for 1 hour. Next, RAW 264.7 macrophages were further exposed to LPS (100 ng/ml) and PGD2 (10 μM) for 24 hrs, and then treated with MTT (5 mg/ml) at 37° C. for 4 hrs. Then, the supernatant of each well was replaced with DMSO (200 μl/well), and the absorbance was measured at 570 nm.
# [1] = test system: isolated peritoneal macrophages; experiment: Cell viability (MTT) assay with LPS/PGD2, peritoneal macrophages; format: cell-based, mice
# [2] = PGD2 (10 μM) plus CT-NA up to 100 μM
# [3] = LPS (100 ng/ml) plus CT-NA up to 100 μM
compound,measurement,setting,value
CN([C@@H]1CCc2c(CC(=O)[O-])c3cccnc3n2C1)S(=O)(=O)c1ccc(F)cc1.[Na+] [Sodium salt hydrate],"production of IL-1β, TNF-α, IL-6 and KC in BALF",LPS-induced ALI mice,effectively reduced
same,"cytotoxicity (MTT), CSE plus CT-NA",RAW 264.7 macrophages; CSE 4% plus CT-NA up to 100 μM,non-toxic
same,"cytotoxicity (MTT), PGD2 plus CT-NA",RAW 264.7 macrophages; [2],non-toxic
same,"CS-induced overexpression of TNF-α, IL-1β, IL-6 and KC in BALF",CS-induced ALI mice; CT-NA 10 and 30 mg/kg intragastric,effectively reduced
same,CS-induced inhibition of IL-10 in BALF,CS-induced ALI mice; CT-NA treatment,reversed
same,"cytotoxicity (MTT), LPS plus CT-NA",RAW264.7 macrophages; [3],non-toxic
same,"cytotoxicity (MTT), PGD2 plus CT-NA",RAW264.7 macrophages; [2],non-toxic
same,"cytotoxicity (MTT), LPS plus CT-NA",[1]; [3],non-toxic
same,"cytotoxicity (MTT), PGD2 plus CT-NA",[1]; [2],non-toxic
